Measured values as given in PubChem BioAssay (NCI).
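The concentration for 50% growth inhibition is given as GI50. TGI: concentration producing complete growth inhibition.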

How the values were obtained:
Experiment in all cases: growth of human tumour cells (NCI), 384-well format
[1] = tested on: NCI-H226 lung
[2] = tested on: PC-3 prostate
[3] = tested on: BT-549 breast
[4] = tested on: HS 578T breast
[5] = tested on: SR leukemia
[6] = tested on: NCI-H522 lung
[7] = tested on: HCC-2998 colon
[8] = tested on: OVCAR-4 ovarian
[9] = tested on: T-47D breast
[10] = tested on: 786-0 renal
[11] = tested on: NCI/ADR-RES ovarian
[12] = tested on: MOLT-4 leukemia
[13] = tested on: HL-60(TB) leukemia

Row | SMILES | GI50 [1] | TGI [1] | GI50 [2] | TGI [2] | GI50 [3] | TGI [3] | GI50 [4] | TGI [4] | TGI [5] | GI50 [6] | TGI [6] | GI50 [7] | TGI [7] | GI50 [8] | TGI [8] | GI50 [9] | TGI [9] | GI50 [10] | TGI [10] | GI50 [11] | also measured
1 | C[C@@H]1CN(C(=O)c2ccc(NC(=O)c3cc(O[C@H](C)c4c(Cl)ccc(F)c4Cl)c(N)nn3)cc2)C[C@H](C)N1 | 2.12 µM | 8.92 µM | 2.58 µM | 7.16 µM | 2.39 µM | 4.27 µM | 1800 nM | 3.44 µM | 10.9 nM | 1.99 µM | 7.16 µM | 2140 nM | 7.68 µM | 4.1 µM | 10.2 µM | 3.17 µM | 8.97 µM | 1860 nM | 3.5 µM | 14.8 µM | TGI [11]: 28.2 µM; GI50 [12]: 0.181 µM; TGI [12]: 0.356 µM; GI50 [13]: 1250 nM; TGI [13]: 2510 nM
2 | O=C1CC(c2ccc(N3CCOCC3)cc2)(c2ccsc2)NC(=O)C1Sc1ccccc1Cl (stereo not given) | 50.3 µM | > 100 µM | 43.6 µM | > 100 µM | 3.71 µM | 28.3 µM | 1760 nM | 3.69 µM | 1740 nM | 6.42 µM | > 100 µM | > 100000 nM | > 100 µM | 34 µM | > 100 µM | 66 µM | > 100 µM | 2710 nM | > 21.3 µM | 19.4 µM | GI50 [5]: 692 nM; TGI [11]: 41.5 µM; GI50 [12]: 9.17 µM; TGI [12]: 22 µM; GI50 [13]: 2820 nM
